Where “and” joins values, the source holds several entries; their conditions need not be identical. Identical values can stand only once.
Experiments:
[1] = Cytotoxicity, MTT assay, HMVEC; assay type: cell-based; conditions: human, HMVEC (human microvascular endothelial cells), read-out: HMVEC Cytotox (IC50)
Description: N—Ac-CHAVC-NH2 (SEQ ID NO:10) and the control peptide N—Ac-CHGVC-NH2 (SEQ ID NO:11) were evaluated for possible cytotoxic effects on human microvascular endothelial (HMVEC; Clonetics), human umbilical vein endothelial (HUVEC; ATCC #CRL-1730), IAFp2 (human fibroblast cell line; Institute Armand-Frapier, Montreal, Quebec), WI-38 (human fibroblast cell line; ATCC #CCL-75), MDA-MB231 (human breast cancer cell line; ATCC #HTB-26), and PC-3 (human prostate cancer cell line; ATCC #CRL-1435) cells utilizing the MTT assay (Plumb et al., Cancer Res. 49:4435-4440, 1989). Neither of the peptides was cytotoxic at concentrations up to and including 100 μM. Similarly, neither of the peptides was capable of inhibiting the proliferation of the above cell lines at concentrations up to 100 μM, as judged by ^3H-thymidine incorporation assays.

[2] = tested on: A1N4 human breast epithelial cells; assay: Disruption of breast epithelial cell adhesion, E-cadherin staining; assay type: cell-based; conditions: 500 μg/mL, 48 hours
Description: A1N4 human breast epithelial cells (kindly provided by Martha Stampfer, Lawrence Berkeley Laboratory, Berkeley, Calif.) were plated on glass coverslips and cultured in F12/DME containing 0.5% FCS and 10 ng/mL EGF for 24 hours. Fresh medium containing the cyclic peptides (final concentration 500 μg/mL media) N—Ac-CHAVC-NH2 (SEQ ID NO:10) or N—Ac-CHGVC-NH2 (SEQ ID NO:11) was then added. Following 24 hours of culture in the presence of the peptides, the medium was removed and fresh medium containing the peptides was added. The cells were fixed 24 hours later with cold methanol and stored in phosphate buffered saline (PBS).
Coverslips were blocked for 1 hour in 3% ovalbumin/PBS and incubated for a further 1 hour in the presence of 1 μg/mL mouse anti-E-cadherin antibody (Zymed, Gaithersburg, Md.). Primary and secondary antibodies were diluted in PBS containing 6% normal goat serum. Following incubation in the primary antibody, coverslips were washed 3 times for 5 minutes each in PBS and incubated for 1 hour with goat anti-mouse conjugated to fluorescein (Kiekegard and Perry, South San Francisco, Calif.) diluted 1:100. Following a further wash in PBS (3×5 minutes) coverslips were mounted in Vectashield (Vector Labs, Burlingame, Calif.) and viewed with a Zeiss infinity corrected microscope.

human skin = assay: Human skin permeability, Franz Cell apparatus
Description: Another cell adhesion assay involves evaluating the effect of a modulating agent on permeability of adherent epithelial and/or endothelial cell layers. For example, the effect on permeability of human skin may be evaluated. Such skin may be derived from a natural source or may be synthetic. Human abdominal skin for use in such assays may generally be obtained from humans at autopsy within 24 hours of death. Briefly, a cyclic peptide and a test marker (e.g., the fluorescent markers Oregon Green™ and Rhodamine Green™ Dextran) may be dissolved in a sterile buffer, and the ability of the marker to penetrate through the skin and into a receptor fluid may be measured using a Franz Cell apparatus (Franz, Curr. Prob. Dermatol. 7:58-68, 1978; Franz, J. Invest. Dermatol. 64:190-195, 1975). In general, a modulating agent that enhances the permeability of human skin results in a statistically significant increase in the amount of marker in the receptor compartment after 6-48 hours in the presence of 500 μg/mL modulating agent. This assay evaluates the effect of a modulating agent on E-cadherin mediated cell adhesion.
Abdominal skin from humans at autopsy within 24 hours of death was used in these assays. The effect of N—Ac-CHAVC-NH2 (SEQ ID NO:10) and N—Ac-CHGVC-NH2 (SEQ ID NO:11), used at a concentration of 500 μg/ml or 2.5 mg/ml, on the penetration of two fluorescent markers, Oregon Green 488 (charge −1, MW 386 daltons) and Rhodamine Green 3000 Dextran (no charge, MW 3000 daltons) through human skin was then evaluated utilizing a Franz Cell apparatus (Franz, Curr. Prob. Dermatol. 7:58-68, 1978; Franz, J. Invest. Dermatol. 64:190-195, 1975). The peptides and markers were dissolved in sterile phosphate buffer, pH 7.2, and phosphate buffer was used as the receptor fluid. 150 μl of solution containing 0.2 mg Oregon Green and 1.0 mg Rhodamine Green was used to evaluate 500 μg/ml peptide; 200 μl of solution containing 0.05 mg Oregon Green and 1.250 mg Rhodamine Green was used to evaluate 2.5 mg/ml peptide. The solution was placed on top of the epidermal side of the skin, and the penetration of the markers through the skin was assessed using a fluorescent spectrophotometric method (in a Perkin Elmer 650-105 Fluorescence Spectrophotometer, and comparing the reading to a standard curve) at 6, 12, 24, 36, and 48 hours after the start of the experiment. The fluorescent units were converted to a concentration unit of microgram/5 ml (volume of the receiver compartment) using a standard curve and regression analysis equations. The curve was linear for the concentrations tested for both markers (r^2=1 for OrG and 0.997 for RhG). For each peptide and marker combination, the experiment was performed in triplicate.

[3] = 500 μg/ml Peptide, t = 6 hours, Mean
[4] = 500 μg/ml Peptide, t = 6 hours, single replicates, listed as Sample#3
[5] = 500 μg/ml Peptide, t = 12 hours, Mean
[6] = 500 μg/ml Peptide, t = 12 hours, single replicates, listed as Sample#3
[7] = 500 μg/ml Peptide, t = 24 hours, Mean
[8] = 500 μg/ml Peptide, t = 24 hours, single replicates, listed as Sample#3
[9] = 500 μg/ml Peptide, t = 36 hours, Mean
[10] = 500 μg/ml Peptide, t = 36 hours, single replicates, listed as Sample#3
[11] = 500 μg/ml Peptide, t = 48 hours, Mean
[12] = 500 μg/ml Peptide, t = 48 hours, single replicates, listed as Sample#3
[13] = 2.5 mg/ml Peptide, t = 6 hours, Mean
[14] = 2.5 mg/ml Peptide, t = 6 hours, single replicates, listed as Sample#3
[15] = 2.5 mg/ml Peptide, t = 12 hours, Mean
[16] = 2.5 mg/ml Peptide, t = 12 hours, single replicates, listed as Sample#3
[17] = 2.5 mg/ml Peptide, t = 24 hours, Mean
[18] = 2.5 mg/ml Peptide, t = 24 hours, single replicates, listed as Sample#3
[19] = 2.5 mg/ml Peptide, t = 36 hours, Mean
[20] = 2.5 mg/ml Peptide, t = 36 hours, single replicates, listed as Sample#3
[21] = 2.5 mg/ml Peptide, t = 48 hours, Mean
[22] = 2.5 mg/ml Peptide, t = 48 hours, single replicates, listed as Sample#3

## CC(=O)N[C@H]1CSSC[C@@H](C(N)=O)NC(=O)[C@H](C(C)C)NC(=O)CNC(=O)[C@H](Cc2c[nH]cn2)NC1=O [N—Ac—CHGVC—NH2, reference compound]
[1]
  IC50: > 100 µM
[2]
  E-cadherin staining and monolayer of A1N4 cells: displayed E-cadherin staining concentrated at points of cell-cell contact and formed a tightly adherent monolayer
Human skin; [3]
  Percutaneous absorption concentration for Dextran Rhodamine Green 3000: 0.23 mg/5ml
  Percutaneous absorption concentration for Oregon Green 488: 0.055 mg/5ml
Human skin; [4]
  Percutaneous absorption concentration for Dextran Rhodamine Green 3000: 0.2 mg/5ml (2×) and 0.3 mg/5ml
  Percutaneous absorption concentration for Oregon Green 488: 0.098 mg/5ml and 0.022 mg/5ml and 0.045 mg/5ml
Human skin; [5]
  Percutaneous absorption concentration for Dextran Rhodamine Green 3000: 0.67 mg/5ml
  Percutaneous absorption concentration for Oregon Green 488: 0.132 mg/5ml
Human skin; [6]
  Percutaneous absorption concentration for Dextran Rhodamine Green 3000: 0.6 mg/5ml and 1.0 mg/5ml and 0.4 mg/5ml
  Percutaneous absorption concentration for Oregon Green 488: 0.200 mg/5ml and 0.107 mg/5ml and 0.088 mg/5ml
Human skin; [7]
  Percutaneous absorption concentration for Dextran Rhodamine Green 3000: 1.07 mg/5ml
  Percutaneous absorption concentration for Oregon Green 488: 0.698 mg/5ml
Human skin; [8]
  Percutaneous absorption concentration for Dextran Rhodamine Green 3000: 1.0 mg/5ml and 1.4 mg/5ml and 0.8 mg/5ml
  Percutaneous absorption concentration for Oregon Green 488: 0.709 mg/5ml and 0.864 mg/5ml and 0.522 mg/5ml
Human skin; [9]
  Percutaneous absorption concentration for Dextran Rhodamine Green 3000: 1.2 mg/5ml
  Percutaneous absorption concentration for Oregon Green 488: 0.802 mg/5ml
Human skin; [10]
  Percutaneous absorption concentration for Dextran Rhodamine Green 3000: 1.0 mg/5ml (2×) and 1.6 mg/5ml
  Percutaneous absorption concentration for Oregon Green 488: 0.769 mg/5ml and 0.923 mg/5ml and 0.714 mg/5ml
Human skin; [11]
  Percutaneous absorption concentration for Dextran Rhodamine Green 3000: 2.99 mg/5ml
  Percutaneous absorption concentration for Oregon Green 488: 0.902 mg/5ml
Human skin; [12]
  Percutaneous absorption concentration for Dextran Rhodamine Green 3000: 1.8 mg/5ml (2×) and 5.370 mg/5ml
  Percutaneous absorption concentration for Oregon Green 488: 0.923 mg/5ml and 1.021 mg/5ml and 0.764 mg/5ml
Human skin; [13]
  Percutaneous absorption concentration for Dextran Rhodamine Green 3000: 1.93 mg/5ml
  Percutaneous absorption concentration for Oregon Green 488: 0.04 mg/5ml
Human skin; [14]
  Percutaneous absorption concentration for Dextran Rhodamine Green 3000: 1.8 mg/5ml and 0.2 mg/5ml and 3.8 mg/5ml
  Percutaneous absorption concentration for Oregon Green 488: 0.04 mg/5ml and 0.01 mg/5ml and 0.06 mg/5ml
Human skin; [15]
  Percutaneous absorption concentration for Dextran Rhodamine Green 3000: 8.97 mg/5ml
  Percutaneous absorption concentration for Oregon Green 488: 0.07 mg/5ml
Human skin; [16]
  Percutaneous absorption concentration for Dextran Rhodamine Green 3000: 17.02 mg/5ml and 2.0 mg/5ml and 7.89 mg/5ml
  Percutaneous absorption concentration for Oregon Green 488: 0.11 mg/5ml and 0.04 mg/5ml and 0.08 mg/5ml
Human skin; [17]
  Percutaneous absorption concentration for Dextran Rhodamine Green 3000: 15.64 mg/5ml
  Percutaneous absorption concentration for Oregon Green 488: 0.16 mg/5ml
Human skin; [18]
  Percutaneous absorption concentration for Dextran Rhodamine Green 3000: 27.47 mg/5ml and 5.56 mg/5ml and 13.9 mg/5ml
  Percutaneous absorption concentration for Oregon Green 488: 0.12 mg/5ml and 0.11 mg/5ml and 0.26 mg/5ml
Human skin; [19]
  Percutaneous absorption concentration for Dextran Rhodamine Green 3000: 19.73 mg/5ml
  Percutaneous absorption concentration for Oregon Green 488: 0.25 mg/5ml
Human skin; [20]
  Percutaneous absorption concentration for Dextran Rhodamine Green 3000: 33.06 mg/5ml and 5.79 mg/5ml and 20.35 mg/5ml
  Percutaneous absorption concentration for Oregon Green 488: 0.23 mg/5ml and 0.22 mg/5ml and 0.29 mg/5ml
Human skin; [21]
  Percutaneous absorption concentration for Dextran Rhodamine Green 3000: 25.53 mg/5ml
  Percutaneous absorption concentration for Oregon Green 488: 0.36 mg/5ml
Human skin; [22]
  Percutaneous absorption concentration for Dextran Rhodamine Green 3000: 40.86 mg/5ml and 8.25 mg/5ml and 27.48 mg/5ml
  Percutaneous absorption concentration for Oregon Green 488: 0.36 mg/5ml and 0.26 mg/5ml and 0.46 mg/5ml
